Columns and labels:
A549 [1] = experiment: Potentiation of etoposide-induced cell cycle arrest in human A549 cells assessed as accumulation at S phase at 2.5 uM in presence of etoposide after 48 hrs by flow cytometric analysis (Rvb =12.3%); type: functional
A549 [2] = experiment: Decrease in cell cycle associated protein expression in human A549 cells assessed as fold change in CDK6 expression at 10 uM after 36 hrs by Western blot analysis (reference value: 0.7); type: functional
A549 [3] = experiment: Decrease in cell cycle associated protein expression in human A549 cells assessed as fold change in cyclin E expression at 5 uM after 48 hrs by Western blot analysis (reference value: 0.37); type: functional
A549 [4] = experiment: Potentiation of etoposide-induced cell cycle arrest in human A549 cells assessed as accumulation at G2/M phase at 2.5 uM in presence of etoposide after 48 hrs by flow cytometric analysis (Rvb =18.9%); type: functional
CYP2C19 = CYP2C19 (Homo sapiens, UniProt P33261); experiment: Inhibition of human CYP2C19 assessed as residual activity at 10 uM measured after 15 mins relative to control; type: ADME; conditions: read-out: Activity
Chain of CYP2C19 (P33261 whole entry): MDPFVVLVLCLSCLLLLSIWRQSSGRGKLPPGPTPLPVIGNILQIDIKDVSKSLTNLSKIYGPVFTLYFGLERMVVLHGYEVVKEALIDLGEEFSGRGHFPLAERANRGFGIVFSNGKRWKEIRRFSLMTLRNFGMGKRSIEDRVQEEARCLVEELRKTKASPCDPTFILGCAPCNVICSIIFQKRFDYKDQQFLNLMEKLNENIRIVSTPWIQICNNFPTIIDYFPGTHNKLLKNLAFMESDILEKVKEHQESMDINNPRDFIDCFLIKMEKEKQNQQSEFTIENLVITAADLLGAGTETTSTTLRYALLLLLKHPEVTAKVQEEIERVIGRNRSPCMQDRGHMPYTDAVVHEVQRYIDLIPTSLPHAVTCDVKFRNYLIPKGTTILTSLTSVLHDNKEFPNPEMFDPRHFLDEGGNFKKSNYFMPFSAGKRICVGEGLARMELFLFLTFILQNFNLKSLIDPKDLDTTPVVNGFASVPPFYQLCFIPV

[5] = Upregulation of p27KIP1 protein expression in human A549 cells assessed as fold change in expression at 5 uM after 48 hrs by Western blot analysis (reference value: 0.48); type: functional
A549 [6] = experiment: Decrease in cell cycle associated protein expression in human A549 cells assessed as fold change in cyclin D2 expression at 2.5 uM after 48 hrs by Western blot analysis (reference value: 0.46); type: functional
A549 [7] = experiment: Potentiation of cisplatin-induced cell cycle arrest in human A549 cells assessed as accumulation at sub G1 phase at 10 uM in presence of cisplatin after 48 hrs by flow cytometric analysis (reference value: 17%); type: functional
[8] = Permeability of the compound by PAMPA assay; type: ADME; conditions: read-out: permeability
A549 [9] = experiment: Decrease in cell cycle associated protein expression in human A549 cells assessed as fold change in CDK6 expression at 10 uM after 48 hrs by Western blot analysis (reference value: 0.7 to 1.05); type: functional
A549 [10] = experiment: Decrease in cell cycle associated protein expression in human A549 cells assessed as fold change in cyclin D2 expression at 10 uM after 6 hrs by Western blot analysis (reference value: 0.77); type: functional
A549 [11] = experiment: Decrease in cell cycle associated protein expression in human A549 cells assessed as fold change in CDK4 expression at 10 uM after 6 hrs by Western blot analysis (reference value: 0.87); type: functional
A549 [12] = experiment: Potentiation of cisplatin-induced cell cycle arrest in human A549 cells assessed as accumulation at G1 phase at 5 uM in presence of cisplatin after 48 hrs by flow cytometric analysis (reference value: 14.4%); type: functional
[13] = Metabolic stability in rat plasma assessed as parent compound remaining at 10 uM measured after 1 hr; type: ADME, cell-free; conditions: read-out: Stabilty
A549 [14] = experiment: Decrease in cell cycle associated protein expression in human A549 cells assessed as fold change in cyclin D3 expression at 2.5 uM after 48 hrs by Western blot analysis (reference value: 0.73); type: functional
A549 [15] = experiment: Decrease in cell cycle associated protein expression in human A549 cells assessed as fold change in CDK6 expression at 10 uM after 24 hrs by Western blot analysis (reference value: 0.7); type: functional
A549 [16] = experiment: Decrease in cell cycle associated protein expression in human A549 cells assessed as fold change in CDK2 expression at 10 uM after 36 hrs by Western blot analysis (reference value: 0.79); type: functional
A549 [17] = experiment: Decrease in cell cycle associated protein expression in human A549 cells assessed as fold change in cyclin D1 expression at 5 uM after 48 hrs by Western blot analysis (reference value: 0.39); type: functional
A549 [18] = experiment: Induction of cell cycle arrest in human A549 cells assessed as accumulation at G2/M phase at 5 uM after 24 hrs by flow cytometric analysis (reference value: 21.6%); type: functional
A549 [19] = experiment: Induction of cell cycle arrest in human A549 cells assessed as accumulation at G1 phase at 5 uM after 48 hrs by flow cytometric analysis (reference value: 57.8 to 65.5%); type: functional
A549 [20] = experiment: Potentiation of etoposide-induced cell cycle arrest in human A549 cells assessed as accumulation at sub G1 phase at 5 uM in presence of etoposide after 48 hrs by flow cytometric analysis (Rvb =33 %); type: functional
A549 [21] = experiment: Decrease in cell cycle associated protein expression in human A549 cells assessed as fold change in cyclin D3 expression at 10 uM after 36 hrs by Western blot analysis (reference value: 1.09); type: functional
[22] = Solubility of the compound at pH 7.4; type: physicochemical; conditions: buffer
A549 [23] = experiment: Decrease in cell cycle associated protein expression in human A549 cells assessed as fold change in CDK6 expression at 5 uM after 48 hrs by Western blot analysis (reference value: 1.05); type: functional
[24] = Metabolic stability in rat plasma assessed as parent compound remaining at 10 uM measured after 30 mins; type: ADME, cell-free; conditions: read-out: Stabilty
A549 [25] = experiment: Induction of cell cycle arrest in human A549 cells assessed as decrease in cell accumulation at G2/M phase after 48 hrs by flow cytometric analysis; type: functional, cell-based; conditions: dose 2.5-10 µM
A549 [26] = experiment: Potentiation of etoposide-induced cell cycle arrest in human A549 cells assessed as accumulation at sub G1 phase at 10 uM in presence of etoposide after 48 hrs by flow cytometric analysis (Rvb =33 %); type: functional
A549 [27] = experiment: Induction of cell cycle arrest in human A549 cells assessed as accumulation at S phase at 5 uM after 24 hrs by flow cytometric analysis (reference value: 17.6%); type: functional
[28] = Upregulation of p27KIP1 protein expression in human A549 cells assessed as fold change in expression at 10 uM after 24 hrs by Western blot analysis (reference value: 0.83); type: functional
A549 [29] = experiment: Induction of cell cycle arrest in human A549 cells assessed as accumulation at sub G1 phase at 5 uM after 48 hrs by flow cytometric analysis (reference value: 1.9 to 4.9%); type: functional
A549 [30] = experiment: Decrease in cell cycle associated protein expression in human A549 cells assessed as reduction in cyclin E expression at 10 uM by Western blot analysis; type: functional, cell-based; conditions: time 6-48 hrs, TDE = time-dependent effect
A549 [31] = experiment: Induction of cell cycle arrest in human A549 cells assessed as accumulation at S phase at 2.5 uM after 48 hrs by flow cytometric analysis (Rvb =10.4%); type: functional
A549 [32] = experiment: Potentiation of etoposide-induced cell cycle arrest in human A549 cells assessed as accumulation at S phase at 5 uM in presence of etoposide after 48 hrs by flow cytometric analysis (Rvb =12.3%); type: functional
A549 [33] = experiment: Decrease in cell cycle associated protein expression in human A549 cells assessed as fold change in cyclin E expression at 10 uM after 36 hrs by Western blot analysis (reference value: 0.55); type: functional
A549 [34] = experiment: Decrease in cell cycle associated protein expression in human A549 cells assessed as fold change in CDK6 expression at 10 uM after 6 hrs by Western blot analysis (reference value: 0.7); type: functional
A549 [35] = experiment: Induction of cell cycle arrest in human A549 cells assessed as accumulation at sub G1 phase at 2.5 uM after 48 hrs by flow cytometric analysis (Rvb =1.9 %); type: functional

CN(C)C(=O)NCCCN(C)C1=Nc2ccccc2C(CC(=O)NCc2ccc(F)cc2)N1c1ccc(C2CCCCC2)cc1 (stereo unspecified)
Activity (A549 [1]): 10.7% | fold change (FC) (A549 [2]): 0.38 | fold change (FC) (A549 [3]): 0.49 | Activity (A549 [4]): 18.5% | activity at 0.25 h, 10 µM (CYP2C19): 55.8% | fold change (FC) [5]: 0.76 | fold change (FC) (A549 [6]): 0.61 | Activity (A549 [7]): 52.3% | Papp [8]: < 1.5 ×10⁻⁶ cm/s | fold change (FC) (A549 [9]): 0.14 | fold change (FC) (A549 [10]): 0.86 | fold change (FC) (A549 [11]): 0.88 | Activity (A549 [12]): 24.5% | remaining at 1 h, 10 µM [13]: 22% | fold change (FC) (A549 [14]): 0.74 | fold change (FC) (A549 [15]): 0.47 | fold change (FC) (A549 [16]): 0.71 | fold change (FC) (A549 [17]): 0.5 | Activity (A549 [18]): 19.3% | Activity (A549 [19]): 67.7% | Activity (A549 [20]): 43.4% | fold change (FC) (A549 [21]): 0.96 | solubility [22]: < 1000 µg/mL | fold change (FC) (A549 [23]): 0.45 | remaining at 0.5 h, 10 µM [24]: 49.4% | Activity (A549 [25]): Dose-dependent effect | Activity (A549 [26]): 83.1% | Activity (A549 [27]): 12.4% | fold change (FC) [28]: 1.05 | Activity (A549 [29]): 1% | Activity (A549 [30]): Tde | Activity (A549 [31]): 8.8% | Activity (A549 [32]): 7.9% | fold change (FC) (A549 [33]): 0.18 | fold change (FC) (A549 [34]): 0.7 | Activity (A549 [35]): 1.3%

— ChEMBL document CHEMBL4715696, “In vitro synergistic anticancer activity of the combination of T-type calcium channel blocker and chemotherapeutic agent in A549 cells” (Bioorg Med Chem Lett, 2016)
